Measurements reported in US3994908A, “Substituted acetic acid derivatives and production thereof” (Shionogi & Co., Ltd., priority 1972, dated 1976).

Legend:
erythema = assay: Anti-erythema activity by the Wilhelmi method, oral; format: in vivo; conditions: Cavia porcellus, Guinea pig
Excerpt: The anti-erythema activity was observed by the Wilhelmi method
[Wilhelmi,g.,(1949), Schweiz.Med.Wehnschr.,79, 577]. The anti-edema

in vivo = conditions: mouse, po
Protocol: Arch. int. […] The toxicity was tested by the ora
administration of the tested compound to mice.

Row | SMILES | ED50 (erythema) [mg/kg] | LD50 (in vivo) [mg/kg]
1 | CCCCC1C(=O)N(c2ccccc2)N(c2ccccc2)C1=O [Phenylbutazone, reference compound] | 26 | –
2 | CC(C(=O)O)c1ccc(Oc2ccc(Cl)cc2)nc1 (stereo not drawn) [2-(2-p-Chlorophenoxy-5-pyridyl)-propionic acid] | 19 | 1150
3 | CC(=O)Oc1ccccc1C(=O)O [Aspirin, reference compound] | 79 | 2000
4 | CC(C(=O)O)c1ccnc(Oc2ccccc2)c1 (stereo not drawn) [Calcium bis[2-(2-phenoxy-4-pyridyl)-propionate]] | 47 | 2250
5 | CC(C(=O)O)c1ccc(Oc2ccccc2)nc1 (stereo not drawn) [Calcium bis[2-(2-phenoxy-5-pyridyl)-propionate]] | 21 | 1640
